Assay results from ChEMBL document CHEMBL1201862, “PubChem BioAssay data set” (2004).
“And” between values parts separate entries of the source, which are not always exact repeats. Identical values can stand only once. The source made the active and inactive calls.

Key:
[1] = biological target: T1, Short transient receptor potential channel 4 (Mus musculus, UniProt Q9QUQ5); experiment: mouse TRPC4 channel activators, dose response, cell-based, HEK293 TRPC4/mu-opioid, Fluo-4 calcium (AID 434937); assay type: functional
T1 sequence (Q9QUQ5 whole entry): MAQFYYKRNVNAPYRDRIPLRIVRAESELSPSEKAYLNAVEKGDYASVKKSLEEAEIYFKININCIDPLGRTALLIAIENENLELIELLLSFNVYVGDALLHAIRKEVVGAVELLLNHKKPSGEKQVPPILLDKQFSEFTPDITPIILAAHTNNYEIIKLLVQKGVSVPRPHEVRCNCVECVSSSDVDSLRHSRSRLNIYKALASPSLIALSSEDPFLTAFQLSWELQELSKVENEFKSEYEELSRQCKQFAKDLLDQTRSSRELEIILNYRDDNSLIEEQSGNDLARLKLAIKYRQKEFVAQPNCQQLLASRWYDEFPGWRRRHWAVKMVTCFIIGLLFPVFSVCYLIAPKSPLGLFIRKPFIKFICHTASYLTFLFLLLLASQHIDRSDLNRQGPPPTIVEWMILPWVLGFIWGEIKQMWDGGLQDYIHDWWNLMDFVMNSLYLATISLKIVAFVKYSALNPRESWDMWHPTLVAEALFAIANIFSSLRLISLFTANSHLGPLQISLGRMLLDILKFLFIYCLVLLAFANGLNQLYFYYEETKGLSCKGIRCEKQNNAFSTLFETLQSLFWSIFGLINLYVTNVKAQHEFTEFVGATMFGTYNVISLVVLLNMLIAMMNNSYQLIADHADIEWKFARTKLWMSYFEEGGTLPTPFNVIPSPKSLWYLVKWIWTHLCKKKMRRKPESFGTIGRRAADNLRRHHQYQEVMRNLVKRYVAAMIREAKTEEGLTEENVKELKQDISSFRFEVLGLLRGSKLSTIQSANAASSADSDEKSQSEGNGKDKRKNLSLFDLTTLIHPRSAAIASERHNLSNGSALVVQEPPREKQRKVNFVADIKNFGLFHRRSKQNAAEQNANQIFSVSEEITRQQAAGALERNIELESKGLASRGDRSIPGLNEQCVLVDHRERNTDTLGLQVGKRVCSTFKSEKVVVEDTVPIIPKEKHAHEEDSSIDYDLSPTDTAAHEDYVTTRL

[2] = system: Vero; experiment: cells; assay type: functional; conditions: Chlorocebus sabaeus
[3] = biological target: Heat shock protein HSP 90-alpha (Homo sapiens, UniProt P07900); assay type: functional, organism-based
[4] = biological target: Large T antigen (Simian virus 40, UniProt P03070); assay type: functional, Betapolyomavirus macacae;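 note: Confirmatory-stage PubChem screen for compounds that inhibit SV40 T antigen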
Chain of Large T antigen (P03070 whole entry): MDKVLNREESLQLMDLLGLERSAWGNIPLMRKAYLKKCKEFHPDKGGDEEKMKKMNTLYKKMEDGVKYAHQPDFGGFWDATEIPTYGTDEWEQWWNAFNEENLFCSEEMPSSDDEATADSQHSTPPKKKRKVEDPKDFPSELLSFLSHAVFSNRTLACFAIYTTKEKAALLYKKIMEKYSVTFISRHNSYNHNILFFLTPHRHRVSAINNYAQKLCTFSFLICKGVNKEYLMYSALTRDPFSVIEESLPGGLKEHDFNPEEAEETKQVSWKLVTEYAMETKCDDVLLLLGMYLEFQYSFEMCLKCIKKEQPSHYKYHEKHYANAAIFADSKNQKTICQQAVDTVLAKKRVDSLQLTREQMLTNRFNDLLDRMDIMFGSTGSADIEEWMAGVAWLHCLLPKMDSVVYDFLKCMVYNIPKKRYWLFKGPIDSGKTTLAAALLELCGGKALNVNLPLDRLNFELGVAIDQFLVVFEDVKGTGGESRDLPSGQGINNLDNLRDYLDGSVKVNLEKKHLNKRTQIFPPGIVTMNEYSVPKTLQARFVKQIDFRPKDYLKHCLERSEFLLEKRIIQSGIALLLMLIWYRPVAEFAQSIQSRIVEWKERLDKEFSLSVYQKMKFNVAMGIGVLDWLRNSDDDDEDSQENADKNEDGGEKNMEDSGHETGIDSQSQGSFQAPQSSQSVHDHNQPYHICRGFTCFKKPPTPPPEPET

[5] = biological target: T2, Apoptotic protease-activating factor 1 (Homo sapiens, UniProt O14727); assay type: functional
T2 sequence (O14727 whole entry): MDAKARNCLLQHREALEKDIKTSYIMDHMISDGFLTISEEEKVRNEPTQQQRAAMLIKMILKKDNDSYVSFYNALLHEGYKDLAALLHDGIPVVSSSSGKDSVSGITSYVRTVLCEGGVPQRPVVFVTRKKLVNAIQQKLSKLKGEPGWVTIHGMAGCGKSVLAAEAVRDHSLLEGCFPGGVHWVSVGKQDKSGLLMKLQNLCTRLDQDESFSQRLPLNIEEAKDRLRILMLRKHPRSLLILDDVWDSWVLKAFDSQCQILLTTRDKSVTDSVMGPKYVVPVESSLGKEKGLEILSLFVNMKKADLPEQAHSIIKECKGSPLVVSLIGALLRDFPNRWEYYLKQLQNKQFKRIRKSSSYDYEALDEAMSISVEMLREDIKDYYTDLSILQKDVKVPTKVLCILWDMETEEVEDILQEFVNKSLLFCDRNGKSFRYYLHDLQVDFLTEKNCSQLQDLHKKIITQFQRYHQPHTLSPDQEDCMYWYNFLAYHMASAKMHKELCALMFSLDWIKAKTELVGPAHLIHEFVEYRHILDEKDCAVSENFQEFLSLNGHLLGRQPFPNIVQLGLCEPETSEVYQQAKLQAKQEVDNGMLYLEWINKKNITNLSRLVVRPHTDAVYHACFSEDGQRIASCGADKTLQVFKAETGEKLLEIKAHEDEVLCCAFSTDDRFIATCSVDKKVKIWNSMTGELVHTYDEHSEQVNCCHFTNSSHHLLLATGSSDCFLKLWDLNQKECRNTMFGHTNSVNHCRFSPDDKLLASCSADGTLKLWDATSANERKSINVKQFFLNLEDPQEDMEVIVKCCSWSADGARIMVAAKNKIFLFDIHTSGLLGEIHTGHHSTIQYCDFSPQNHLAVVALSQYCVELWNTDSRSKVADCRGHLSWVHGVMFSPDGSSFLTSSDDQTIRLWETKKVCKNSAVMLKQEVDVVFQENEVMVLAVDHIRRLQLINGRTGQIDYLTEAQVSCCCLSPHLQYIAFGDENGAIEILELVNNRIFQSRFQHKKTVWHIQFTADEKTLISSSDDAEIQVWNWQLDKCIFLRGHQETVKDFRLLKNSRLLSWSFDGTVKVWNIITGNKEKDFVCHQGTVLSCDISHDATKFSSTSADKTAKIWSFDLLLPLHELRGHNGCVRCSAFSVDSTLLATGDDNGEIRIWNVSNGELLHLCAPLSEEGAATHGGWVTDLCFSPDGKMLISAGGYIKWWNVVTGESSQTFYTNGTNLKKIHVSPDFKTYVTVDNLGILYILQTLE

[6] = biological target: T1, Short transient receptor potential channel 4; experiment: mouse TRPC4 channel inhibitors, dose response, cell-based, HEK293 TRPC4/mu-opioid, Fluo-4 calcium (AID 434942); assay type: functional;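 note: potency of inhibitors blocking the TRPC4 calcium response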
[7] = system: INS1; experiment: beta cell apoptosis inhibitors, cytokine rescue, dose response, luminescence, retest (AID 449756); assay type: functional, cell-based; conditions: Rattus norvegicus;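 note: cell death triggered by IL-1 beta plus TNF-alpha plus IFN-gamma mixture; protective hits raise ATP signal compared with cytokine alone wells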
[8] = biological target: Cytochrome P450 3A4 (Homo sapiens, UniProt P08684);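 note: CYP3A4 tested as one member of a cytochrome P450 panel screen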
Chain of Cytochrome P450 3A4 (P08684 whole entry): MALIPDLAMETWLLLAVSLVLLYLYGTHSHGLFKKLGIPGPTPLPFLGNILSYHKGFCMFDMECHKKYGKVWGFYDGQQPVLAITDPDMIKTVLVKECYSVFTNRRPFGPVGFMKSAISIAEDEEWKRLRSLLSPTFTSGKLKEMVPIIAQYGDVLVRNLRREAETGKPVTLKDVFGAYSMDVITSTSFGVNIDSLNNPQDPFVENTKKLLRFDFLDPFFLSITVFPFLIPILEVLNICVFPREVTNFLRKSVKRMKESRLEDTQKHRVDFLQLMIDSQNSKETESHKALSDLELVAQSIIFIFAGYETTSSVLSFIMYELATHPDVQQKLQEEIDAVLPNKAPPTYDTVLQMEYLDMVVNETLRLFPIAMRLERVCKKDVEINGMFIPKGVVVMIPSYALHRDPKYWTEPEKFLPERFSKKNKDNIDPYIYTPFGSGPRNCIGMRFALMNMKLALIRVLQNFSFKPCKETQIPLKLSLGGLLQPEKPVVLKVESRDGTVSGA

[9] = biological target: Cytochrome P450 2C9 (Homo sapiens, UniProt P11712)
Chain of Cytochrome P450 2C9 (P11712 whole entry): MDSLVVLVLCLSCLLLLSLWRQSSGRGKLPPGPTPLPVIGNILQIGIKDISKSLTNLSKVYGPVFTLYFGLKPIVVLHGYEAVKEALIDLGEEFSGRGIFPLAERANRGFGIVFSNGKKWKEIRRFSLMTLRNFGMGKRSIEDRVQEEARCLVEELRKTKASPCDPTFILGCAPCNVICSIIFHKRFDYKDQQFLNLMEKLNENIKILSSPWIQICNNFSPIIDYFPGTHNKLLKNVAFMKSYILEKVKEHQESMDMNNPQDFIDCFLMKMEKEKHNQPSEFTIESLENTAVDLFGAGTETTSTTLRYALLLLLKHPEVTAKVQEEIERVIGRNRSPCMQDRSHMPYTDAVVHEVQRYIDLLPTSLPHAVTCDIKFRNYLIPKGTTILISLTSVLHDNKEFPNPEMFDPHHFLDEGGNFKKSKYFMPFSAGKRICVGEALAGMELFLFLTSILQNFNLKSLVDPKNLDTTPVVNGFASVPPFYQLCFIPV

[10] = HepG2 cell cytotoxicity, dose response, cytotoxicity control for Shn3 inhibitor project, CellTiter-Glo, cherry-picked (AID 624134); assay type: functional, cell-based
[11] = Shn3 3'UTR reporter inhibitors, dose response, cell-based, Clone20 osteoblasts, firefly luciferase, cherry-picked (AID 624132); assay type: functional;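 note: firefly luciferase luminescence from reporter carrying the Shn3 3'UTR in osteoblasts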
[12] = control 3'UTR Renilla luciferase suppression, dose response, counter-screen for Shn3 inhibitor project, cell-based, Clone20-Shn3RL, cherry-picked (AID 624133); assay type: functional
[13] = biological target: Paired box protein Pax-8 (Homo sapiens, UniProt Q06710); experiment: inhibitors of PAX8-driven TPO luciferase reporter, dose response, RMG-I cells, cherry-pick (AID 687027); assay type: functional, cell-based;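 note: luciferase reporter driven by Pax8 target thyroperoxidase promoter measured by SteadyGlo luminescence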
Chain of Paired box protein Pax-8 (Q06710 whole entry): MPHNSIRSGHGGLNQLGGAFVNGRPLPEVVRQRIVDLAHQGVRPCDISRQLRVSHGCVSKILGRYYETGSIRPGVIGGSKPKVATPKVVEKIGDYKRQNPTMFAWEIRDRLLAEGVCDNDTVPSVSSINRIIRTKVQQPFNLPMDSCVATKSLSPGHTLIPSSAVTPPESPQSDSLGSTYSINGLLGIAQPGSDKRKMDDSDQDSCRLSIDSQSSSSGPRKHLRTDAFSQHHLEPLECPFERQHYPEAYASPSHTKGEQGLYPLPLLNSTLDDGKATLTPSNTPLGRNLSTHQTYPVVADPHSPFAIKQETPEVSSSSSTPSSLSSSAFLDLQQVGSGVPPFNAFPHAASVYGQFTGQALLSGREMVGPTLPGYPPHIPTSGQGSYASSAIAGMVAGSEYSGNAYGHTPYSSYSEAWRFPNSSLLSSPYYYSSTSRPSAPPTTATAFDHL

[14] = cells; assay type: functional, cell-based
[15] = biological target: T3, Nuclear receptor subfamily 0 group B member 1 (Homo sapiens, UniProt P51843); assay type: functional, cell-based;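 note: HEK293T cells transfected with SF-1 and DAX-1 plus StAR promoter luciferase reporter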
T3 sequence (P51843 whole entry): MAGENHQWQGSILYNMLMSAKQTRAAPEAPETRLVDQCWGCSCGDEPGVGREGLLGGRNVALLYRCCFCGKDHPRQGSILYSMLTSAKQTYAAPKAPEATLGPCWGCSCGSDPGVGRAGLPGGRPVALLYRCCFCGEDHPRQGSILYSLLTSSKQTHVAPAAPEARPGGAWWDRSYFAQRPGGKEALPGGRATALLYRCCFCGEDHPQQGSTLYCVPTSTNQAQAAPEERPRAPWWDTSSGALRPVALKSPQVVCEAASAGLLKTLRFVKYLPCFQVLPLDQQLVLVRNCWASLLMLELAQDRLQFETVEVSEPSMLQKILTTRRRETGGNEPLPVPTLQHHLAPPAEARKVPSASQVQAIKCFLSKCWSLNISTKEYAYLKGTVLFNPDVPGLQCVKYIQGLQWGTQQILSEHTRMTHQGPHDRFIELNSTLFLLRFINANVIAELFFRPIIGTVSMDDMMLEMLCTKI

[16] = biological target: FAD-linked sulfhydryl oxidase ALR (Homo sapiens, UniProt P55789); experiment: inhibitors of human ALR sulfhydryl oxidase, dose response, biochemical, H2O2 detection, luminescence, cherry-pick (AID 493248)
Chain of FAD-linked sulfhydryl oxidase ALR (P55789 whole entry): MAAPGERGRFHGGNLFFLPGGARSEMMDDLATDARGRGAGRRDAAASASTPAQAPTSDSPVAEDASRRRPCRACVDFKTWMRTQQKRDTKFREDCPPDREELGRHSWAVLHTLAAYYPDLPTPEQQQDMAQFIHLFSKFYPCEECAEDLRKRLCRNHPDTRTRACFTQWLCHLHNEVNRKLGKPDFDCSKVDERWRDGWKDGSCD

For `NCCSc1c(-c2ccc(Cl)cc2)[nH]c2ccccc12`, the EC50 [1] was 4.73 µM (active) and the CC50 [2] was > 25 µM (active).

With `Cc1cc(C)c2c(N=NN3CCCCC3)[nH]nc2n1` the AC50 [3] was 4.01 µM (active).

For `COc1cc(-c2c(C#N)c(O)nc3c2c(C)nn3-c2ccccc2)ccc1O`, the IC50 [4] was > 100 µM (active) and the IC50 [5] was 20.5 µM (active).

For `Cc1ccc(NC(=O)CCN2CCC(Cc3ccccc3)CC2)cc1`, the EC50 [1] was 0.0667 µM (active).

With `Cc1ccc(COn2c(-c3ccc(Cl)cc3Cl)nc3ncccc32)cc1` the EC50 [6] was 0.473 µM (active) and the EC50 [1] was 0.749 µM (active).

With `CC(Oc1cccc(Cl)c1)C(=O)Nc1cc(S(=O)(=O)N2CCOCC2)ccc1N1CCCCC1` (configuration not stated) the IC50 [5] was 74.9 µM (active) and the AC50 [7] was 5.41 µM (active).

In the case of `CC(=O)O[C@]1(C(C)=O)CC[C@@H]2[C@@H]3C=C(Cl)C4=CC(=O)[C@H]5C[C@@H]5[C@]4(C)[C@H]3CC[C@]21C`, the AC50 [8] is reported as “inconclusive” and the AC50 [9] is reported as 15.8 µM (inconclusive) and 31.6 µM (inconclusive).

In the case of `O=C(OCc1ccccc1)c1ccc(NCc2cc(O)ccc2O)cc1`, the AC50 [3] is reported as 8.63 µM (active), the AC50 [10] is reported as 22 µM (active) and the AC50 [11] is reported as 0.711 µM (active). For the same compound, the AC50 [12] was 3.87 µM (active).

With `COc1c(C=O)c2c(c(OC)c1OC)-c1ccc(OC)c(=O)cc1C(NC(C)=O)CC2` (configuration not stated) the AC50 [13] was < 0.26 µM (active), the IC50 [14] was > 67.5 µM (inactive) and the IC50 [15] was > 67.5 µM (inactive).

In the case of `COc1ccc(/C=N/Nc2nc3ccccc3o2)cc1O`, the AC50 [16] is reported as 2.59 µM (active), the IC50 [14] is reported as > 67.5 µM (inactive) and the IC50 [15] is reported as > 67.5 µM (inactive).
